Source: the NIST ThermoML archive (doi:10.1021/je7003066)
Numbers after ± are expanded uncertainties.

Tests used:
[1] = refractive index (Na D-line) (dimensionless); conditions: 101.33 kPa, Liquid, Standard Abbe refractometry
[2] = 101.33 kPa, Liquid; for viscosity: Capillary tube (Ostwald / Ubbelohde) method
[3] = molar heat capacity at constant pressure; conditions: 101.33 kPa, Liquid, Small sample (50 mg) DSC

CC1CCCO1 (configuration not stated) [2-methyltetrahydrofuran]
Conditions | mass density, [2] [kg/m3] | molar heat capacity at constant pressure, [3] [J/K/mol] | refractive index, [1] | viscosity, [2] [mPa·s]
293.15 K | 852.95 ± 0.68 | 155.3 ± 3.1 | 1.4085 ± 0.0008 | 0.492 ± 0.04
303.15 K | 842.8 ± 0.7 | 158.6 ± 3.2 | 1.4017 ± 0.0007 | 0.443 ± 0.04
313.15 K | 832.38 ± 0.72 | 162.1 ± 3.2 | 1.3959 ± 0.0007 | 0.416 ± 0.04
